Calls of active or inactive are those of the source. The rule behind the calls is not given here.
How the values were obtained:
[1] = target: Cyclin-dependent kinase 5 (Homo sapiens) (UniProt Q00535); assay: Inhibition of CDK5 Lys2 labeling site harbouring NVLHRDLKPQNLLINR in human Huh-7 cells at 1 uM by KiNativ Profiling analysis relative to control; format: cell-based
[2] = target: Cyclin-dependent kinase 1 (Homo sapiens) (UniProt P06493); assay: Inhibition of CDC2 Lys2 labeling site in human Huh-7 cell lysate at 1 uM by KiNativ Profiling analysis relative to control; format: subcellular
[3] = target: Serine/threonine-protein kinase 24 (Homo sapiens) (UniProt Q9Y6E0); assay: Inhibition of MST3 Lys2 labeling site harbouring IHRDIKAANVLLSEHGEVK in human Huh-7 cells at 1 uM by KiNativ Profiling analysis relative to control; format: cell-based
[4] = target: Dual specificity mitogen-activated protein kinase kinase; MEK1/2 (Homo sapiens) (UniProt P36507+Q02750); assay: Inhibition of MAP2K1/2 K2 labeling site in human Huh-7 cells at 1 uM by KiNativ Profiling analysis relative to control; format: cell-based
[5] = target: T1, Serine/threonine-protein kinase Nek9 (Homo sapiens) (UniProt Q8TD19); assay: Inhibition of NEK9 (unknown origin) at 10 uM by Ambit Kinomescan binding assay
T1 sequence (whole entry): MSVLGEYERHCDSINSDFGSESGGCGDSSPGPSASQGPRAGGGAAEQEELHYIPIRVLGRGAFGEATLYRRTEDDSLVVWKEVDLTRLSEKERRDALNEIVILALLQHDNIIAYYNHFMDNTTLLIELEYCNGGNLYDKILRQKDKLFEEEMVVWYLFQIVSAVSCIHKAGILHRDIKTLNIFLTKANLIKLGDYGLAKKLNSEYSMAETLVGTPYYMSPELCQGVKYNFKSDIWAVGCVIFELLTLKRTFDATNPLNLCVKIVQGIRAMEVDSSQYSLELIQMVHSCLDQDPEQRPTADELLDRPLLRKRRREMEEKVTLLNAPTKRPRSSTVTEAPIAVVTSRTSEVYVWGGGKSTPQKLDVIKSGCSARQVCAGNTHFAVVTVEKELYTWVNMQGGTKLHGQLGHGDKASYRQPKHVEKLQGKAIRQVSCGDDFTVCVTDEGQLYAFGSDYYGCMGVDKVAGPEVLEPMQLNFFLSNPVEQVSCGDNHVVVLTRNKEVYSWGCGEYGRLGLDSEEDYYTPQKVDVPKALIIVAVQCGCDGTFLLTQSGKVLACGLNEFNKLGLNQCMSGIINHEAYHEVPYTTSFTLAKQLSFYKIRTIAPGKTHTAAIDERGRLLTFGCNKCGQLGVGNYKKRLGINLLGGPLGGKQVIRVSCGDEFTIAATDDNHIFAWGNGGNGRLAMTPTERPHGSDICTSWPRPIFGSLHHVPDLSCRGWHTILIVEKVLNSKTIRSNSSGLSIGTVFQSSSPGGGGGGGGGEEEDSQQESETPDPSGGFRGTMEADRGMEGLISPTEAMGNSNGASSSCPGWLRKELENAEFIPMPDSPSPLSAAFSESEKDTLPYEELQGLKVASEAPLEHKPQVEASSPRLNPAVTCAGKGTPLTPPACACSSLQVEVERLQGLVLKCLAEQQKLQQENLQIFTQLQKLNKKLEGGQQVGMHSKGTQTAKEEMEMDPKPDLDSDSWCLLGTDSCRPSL

[6] = Inhibition of PKD1/2 K2 labeling site in human Huh-7 cells at 1 uM by KiNativ Profiling analysis relative to control; settings: condition cancer
[7] = system: Epidermal growth factor receptor (Homo sapiens), P00533 [UNDEFINED MUTATION]; assay: Inhibition of EGFR L747-E749del/A750P mutant (unknown origin) at 10 uM by Ambit Kinomescan binding assay relative to control
[8] = target: Activated CDC42 kinase 1 (Homo sapiens) (UniProt Q07912); assay: Inhibition of ACK Lys1 labeling site in human A-375 cells at 0.5 uM by KiNativ Profiling analysis relative to control; format: cell-based
[9] = target: T1, Serine/threonine-protein kinase Nek9 (Homo sapiens); assay: Inhibition of NEK9 Lys2 labeling site in human A-375 cells at 0.5 uM by KiNativ Profiling analysis relative to control; format: cell-based
[10] = target: Cyclin-dependent kinase 16 (Homo sapiens) (UniProt Q00536); assay: Inhibition of PCTK1 (unknown origin) at 1 uM by Ambit Kinomescan binding assay relative to control
Sequence of Cyclin-dependent kinase 16 (Homo sapiens) (Q00536 whole entry): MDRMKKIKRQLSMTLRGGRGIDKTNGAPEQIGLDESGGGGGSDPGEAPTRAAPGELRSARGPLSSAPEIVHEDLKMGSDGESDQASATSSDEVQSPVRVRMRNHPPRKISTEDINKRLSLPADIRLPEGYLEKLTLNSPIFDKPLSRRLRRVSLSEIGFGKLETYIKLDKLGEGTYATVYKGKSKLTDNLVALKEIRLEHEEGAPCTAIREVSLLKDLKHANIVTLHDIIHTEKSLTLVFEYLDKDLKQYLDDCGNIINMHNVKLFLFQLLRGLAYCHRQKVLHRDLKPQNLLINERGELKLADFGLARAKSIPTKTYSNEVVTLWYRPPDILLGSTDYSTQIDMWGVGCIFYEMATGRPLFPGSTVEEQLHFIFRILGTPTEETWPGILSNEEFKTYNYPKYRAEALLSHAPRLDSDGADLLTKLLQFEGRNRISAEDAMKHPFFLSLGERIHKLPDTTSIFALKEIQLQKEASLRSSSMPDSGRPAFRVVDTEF

Sequence of Epidermal growth factor receptor (Homo sapiens), P00533 [UNDEFINED MUTATION] (P00533 whole entry, looked up, stated change not applied): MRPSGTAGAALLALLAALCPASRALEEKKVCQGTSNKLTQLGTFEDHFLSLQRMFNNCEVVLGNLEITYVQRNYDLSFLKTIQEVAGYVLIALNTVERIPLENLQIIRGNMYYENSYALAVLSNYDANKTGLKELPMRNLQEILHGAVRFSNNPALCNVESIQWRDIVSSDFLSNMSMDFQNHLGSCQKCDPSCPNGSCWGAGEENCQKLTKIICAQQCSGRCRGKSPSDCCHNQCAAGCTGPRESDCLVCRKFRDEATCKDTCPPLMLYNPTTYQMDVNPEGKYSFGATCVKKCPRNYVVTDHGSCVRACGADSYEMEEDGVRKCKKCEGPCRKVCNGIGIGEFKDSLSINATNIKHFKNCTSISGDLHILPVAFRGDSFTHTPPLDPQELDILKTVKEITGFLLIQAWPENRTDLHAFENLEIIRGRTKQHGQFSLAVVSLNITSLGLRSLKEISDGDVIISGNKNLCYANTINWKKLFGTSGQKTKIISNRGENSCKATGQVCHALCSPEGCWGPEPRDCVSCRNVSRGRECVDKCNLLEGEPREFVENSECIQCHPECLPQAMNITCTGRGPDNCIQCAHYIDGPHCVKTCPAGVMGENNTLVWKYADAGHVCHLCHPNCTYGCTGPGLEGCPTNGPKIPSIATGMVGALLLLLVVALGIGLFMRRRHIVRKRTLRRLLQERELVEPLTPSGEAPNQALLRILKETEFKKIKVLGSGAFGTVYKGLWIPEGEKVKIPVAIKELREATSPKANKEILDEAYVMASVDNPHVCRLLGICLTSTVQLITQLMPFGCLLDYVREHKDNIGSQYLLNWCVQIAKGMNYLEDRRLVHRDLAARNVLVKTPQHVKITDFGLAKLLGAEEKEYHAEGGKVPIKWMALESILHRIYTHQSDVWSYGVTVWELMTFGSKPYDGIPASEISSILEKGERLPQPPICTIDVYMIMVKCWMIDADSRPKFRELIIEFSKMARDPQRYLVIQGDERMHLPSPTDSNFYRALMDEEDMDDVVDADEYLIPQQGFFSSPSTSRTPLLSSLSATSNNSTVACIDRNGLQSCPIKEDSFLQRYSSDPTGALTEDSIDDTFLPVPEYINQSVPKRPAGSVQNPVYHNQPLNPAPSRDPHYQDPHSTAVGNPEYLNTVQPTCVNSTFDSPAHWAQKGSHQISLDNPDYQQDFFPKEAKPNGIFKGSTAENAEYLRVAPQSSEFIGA
Sequence of Cyclin-dependent kinase 5 (Homo sapiens) (Q00535 whole entry, looked up): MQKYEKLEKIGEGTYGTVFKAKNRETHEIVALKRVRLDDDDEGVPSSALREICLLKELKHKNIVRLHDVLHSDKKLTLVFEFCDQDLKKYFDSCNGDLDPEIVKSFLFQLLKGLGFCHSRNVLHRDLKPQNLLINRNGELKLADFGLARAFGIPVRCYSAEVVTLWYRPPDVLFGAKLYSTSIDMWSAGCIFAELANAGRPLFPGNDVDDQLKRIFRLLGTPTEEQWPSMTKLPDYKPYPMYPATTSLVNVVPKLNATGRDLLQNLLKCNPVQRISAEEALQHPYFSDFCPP
Sequence of Cyclin-dependent kinase 1 (Homo sapiens) (P06493 whole entry, looked up): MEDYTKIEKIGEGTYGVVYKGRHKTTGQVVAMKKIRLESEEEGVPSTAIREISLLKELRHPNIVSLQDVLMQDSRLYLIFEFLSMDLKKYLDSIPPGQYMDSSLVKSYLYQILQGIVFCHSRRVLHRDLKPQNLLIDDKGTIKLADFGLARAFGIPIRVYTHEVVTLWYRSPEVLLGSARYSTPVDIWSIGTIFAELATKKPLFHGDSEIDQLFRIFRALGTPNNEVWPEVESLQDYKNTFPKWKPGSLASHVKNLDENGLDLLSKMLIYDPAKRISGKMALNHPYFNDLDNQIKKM
Sequence of Activated CDC42 kinase 1 (Homo sapiens) (Q07912 whole entry, looked up): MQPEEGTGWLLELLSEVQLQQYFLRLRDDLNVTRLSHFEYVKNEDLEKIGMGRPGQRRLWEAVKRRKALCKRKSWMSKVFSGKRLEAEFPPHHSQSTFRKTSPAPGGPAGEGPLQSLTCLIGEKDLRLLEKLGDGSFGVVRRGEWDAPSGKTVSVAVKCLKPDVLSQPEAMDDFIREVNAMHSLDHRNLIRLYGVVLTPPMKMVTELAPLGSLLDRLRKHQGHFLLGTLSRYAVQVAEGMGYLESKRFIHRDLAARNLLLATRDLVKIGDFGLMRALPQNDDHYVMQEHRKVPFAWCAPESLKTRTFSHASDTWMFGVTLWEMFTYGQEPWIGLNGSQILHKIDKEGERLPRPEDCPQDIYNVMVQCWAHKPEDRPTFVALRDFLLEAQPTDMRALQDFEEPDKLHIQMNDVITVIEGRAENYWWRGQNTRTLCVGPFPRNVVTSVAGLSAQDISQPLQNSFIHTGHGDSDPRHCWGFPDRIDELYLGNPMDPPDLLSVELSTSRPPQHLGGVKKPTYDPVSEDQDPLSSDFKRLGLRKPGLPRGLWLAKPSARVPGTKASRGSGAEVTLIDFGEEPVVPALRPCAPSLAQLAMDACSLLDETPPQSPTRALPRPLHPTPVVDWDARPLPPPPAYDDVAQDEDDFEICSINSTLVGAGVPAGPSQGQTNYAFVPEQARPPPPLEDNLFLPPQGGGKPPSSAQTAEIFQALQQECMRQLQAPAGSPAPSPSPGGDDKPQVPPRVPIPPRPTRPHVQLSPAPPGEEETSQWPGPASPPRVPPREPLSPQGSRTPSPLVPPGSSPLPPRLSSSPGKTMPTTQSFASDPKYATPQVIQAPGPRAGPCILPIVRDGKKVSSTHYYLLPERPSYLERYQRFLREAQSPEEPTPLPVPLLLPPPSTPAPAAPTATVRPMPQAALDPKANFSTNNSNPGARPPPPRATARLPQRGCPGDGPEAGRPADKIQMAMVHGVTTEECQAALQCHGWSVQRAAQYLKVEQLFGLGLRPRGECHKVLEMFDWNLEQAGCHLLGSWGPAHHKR
Sequence of Dual specificity mitogen-activated protein kinase kinase; MEK1/2 (Homo sapiens) (P36507 whole entry, looked up): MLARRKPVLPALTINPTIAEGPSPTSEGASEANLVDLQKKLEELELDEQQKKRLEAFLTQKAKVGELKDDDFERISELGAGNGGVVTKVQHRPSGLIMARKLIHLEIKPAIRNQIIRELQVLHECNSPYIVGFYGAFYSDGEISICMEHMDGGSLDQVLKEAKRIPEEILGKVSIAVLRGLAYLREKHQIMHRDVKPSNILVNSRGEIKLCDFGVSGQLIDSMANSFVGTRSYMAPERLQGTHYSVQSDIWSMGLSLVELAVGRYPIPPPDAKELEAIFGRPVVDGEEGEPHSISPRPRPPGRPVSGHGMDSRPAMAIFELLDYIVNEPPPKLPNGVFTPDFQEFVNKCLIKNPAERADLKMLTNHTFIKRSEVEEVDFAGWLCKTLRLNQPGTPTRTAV
Sequence of Dual specificity mitogen-activated protein kinase kinase; MEK1/2 (Homo sapiens) (Q02750 whole entry, looked up): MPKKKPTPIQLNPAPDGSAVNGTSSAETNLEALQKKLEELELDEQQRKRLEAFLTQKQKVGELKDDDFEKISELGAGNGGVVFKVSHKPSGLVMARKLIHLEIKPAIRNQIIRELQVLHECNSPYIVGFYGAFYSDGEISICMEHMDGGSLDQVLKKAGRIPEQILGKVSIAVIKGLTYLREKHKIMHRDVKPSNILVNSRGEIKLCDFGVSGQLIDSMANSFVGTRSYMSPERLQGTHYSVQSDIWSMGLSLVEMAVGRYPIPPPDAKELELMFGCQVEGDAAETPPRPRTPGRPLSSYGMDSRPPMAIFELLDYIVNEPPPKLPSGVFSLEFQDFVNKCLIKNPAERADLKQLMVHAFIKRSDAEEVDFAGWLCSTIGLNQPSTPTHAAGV
Sequence of Serine/threonine-protein kinase 24 (Homo sapiens) (Q9Y6E0 whole entry, looked up): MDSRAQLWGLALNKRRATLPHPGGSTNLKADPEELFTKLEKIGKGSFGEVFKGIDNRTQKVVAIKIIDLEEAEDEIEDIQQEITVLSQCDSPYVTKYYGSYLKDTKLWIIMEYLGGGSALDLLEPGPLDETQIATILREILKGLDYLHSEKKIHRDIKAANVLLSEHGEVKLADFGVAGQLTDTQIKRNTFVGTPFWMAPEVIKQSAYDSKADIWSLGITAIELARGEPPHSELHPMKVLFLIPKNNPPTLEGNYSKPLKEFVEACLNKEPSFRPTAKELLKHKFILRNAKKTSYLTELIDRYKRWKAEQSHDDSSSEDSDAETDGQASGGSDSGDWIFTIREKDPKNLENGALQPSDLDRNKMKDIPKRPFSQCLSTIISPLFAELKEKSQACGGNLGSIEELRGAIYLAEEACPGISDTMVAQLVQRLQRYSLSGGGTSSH

SMILES: CNc1cc(Oc2cc(C(=O)Nc3cc(N4CCN(C)CC4)cc(C(F)(F)F)c3)ccc2C)ncn1
- inhibition [1]: 1.1%
- inhibition [2]: 0.4%
- inhibition [3]: 5%

SMILES: CCN1CCN(Cc2ccc(NC(=O)c3ccc(C)c(Oc4ccnc5[nH]ccc45)c3)cc2C(F)(F)F)CC1
- inhibition [4]: 5.5%
- inhibition [5]: inactive
- inhibition at 1 µM [6]: -9.2%
- inhibition [7]: 1.5%

SMILES: CCN1CCN(Cc2ccc(NC(=O)c3ccc(C)c(/C=C/c4cnc5[nH]ccc5c4OC)c3)cc2C(F)(F)F)CC1
- inhibition [8]: 35.2%
- inhibition [9]: 10.4%
- inhibition [10]: 100%
